Measurements: patent US9271965B2, “Crystalline forms of (R)-3-[N-(3'-chlorobiphenyl-4-ylmethyl)-N'-(3-hydroxyisoxazole-5-carbonyl)hydrazino]-2-hydroxyproprionic acid isopropyl ester” (Theravance Biopharma R&D IP, LLC, priority 2012, dated 2016)

Assays:
Format in all cases: physicochemical
[1] = Dynamic moisture sorption (DMS) assessment; settings: for solid form (PXRD) after moisture sorption-desorption: PXRD before and after the DMS experiment; for hygroscopicity: from DMS profile, Form 1 per European Pharmacopoeia Technical Guide classification; for hysteresis between sorption and desorption: two cycles of water sorption and desorption
Procedure: In one embodiment, the crystalline neutral monohydrate Form 1 is characterized by the DMS profile in FIG. 4. Samples of Form 1 were subjected to isothermal moisture sorption analysis at 25° C. […] The step-like profile at 40-60% RH may indicate capillary condensation. At 90% RH, the total moisture uptake was ˜0.5%.
In one embodiment, the crystalline neutral Form 2 is characterized by the DMS profile in FIG. 11. Samples of Form 2 were subjected to isothermal moisture sorption analysis at 25° C. With increasing relative humidity, the amount of water adsorbed by the solid increased gradually up to 75% RH and steeply between 75%-90% RH […].
In one embodiment, the crystalline neutral anhydrous Form 3 is characterized by the DMS profile in FIG. 29. The DMS thermogram of Form 3 is similar to that of Form 2 (FIG. 11). […] The sample, however, loses the adsorbed water during desorption segment and returns to an anhydrous state. Overlay of the PXRD patterns of the sample before and after it was subjected the moisture sorption-desorption experiment is shown in FIG. 30. […] Form 3, like Form 2, is hygroscopic.
In one embodiment, the crystalline neutral anhydrous Form 4 is characterized by the DMS profile in FIG. 37. […] Form-4 is non-hygroscopic. […] Form 4, which is obtained from the monohydrate Form 1, is non-hygroscopic, whereas Form 3, which is obtained from anhydrous Form 2, is hygroscopic. […] Overlay of the PXRD patterns of the sample before and after it was subjected the moisture sorption-desorption experiment is shown in FIG. 30.
Moisture sorption and desorption data on the crystalline compounds were collected on a VTI SGA-100 Vapor Sorption Analyzer. Sorption and desorption data were collected over a range of 5% to 90% relative humidity (RH) at 5% RH intervals. Equilibrium criteria used for analysis were less than 0.01% weight change in 5 minutes, with a maximum equilibration time of three hours if the weight criterion was not met. Samples were subjected to initial drying or desorption steps to 5% RH followed by the sorption-desorption cycle. Data were collected at a time interval of two minutes or 0.01% change in weight.

[2] = Exposure of Form 2 to 84% relative humidity, analysis by PXRD; settings: 84% RH for seven days
Excerpt: In one experiment, a sample of Form 2 was exposed to 84% RH for seven days. […] This experiment established that Form 2 is metastable to the monohydrate Form 1 in high relative humidities (>75% RH). Accordingly, in another embodiment, the crystalline neutral monohydrate Form 1 can be prepared by (a′) exposing the crystalline neutral Form 2 to high humidity; and in one embodiment exposing Form 2 to about >75% relative humidity, typically for about 5-7 days.

[3] = Slurry of Form 2 in water, analysis by PXRD; settings: slurried in water (e.g., deionized water) for five days
Excerpt: This experiment established that Form 2 is metastable to the monohydrate Form 1 in solutions containing water. Thus, in yet another embodiment, the crystalline neutral monohydrate Form 1 can be prepared by (a″) reslurrying the crystalline neutral Form 2 in water or an aqueous solution; (b″) heating then cooling the resulting slurry; (c″) optionally stirring or sonicating to complete dissolution; and allowing solids to form and isolating the solids to yield the crystalline neutral monohydrate Form 1. […] Step (a″) is typically conducted by first treating Form 2 with methanol, and subsequently adding water as an anti-solvent to form a slurry. Step (b″) generally involves heating the slurry to a temperature within the range of about 55-75° C., and in one embodiment to about 60° C. The cooling in step (b″) is generally to about room temperature.

[4] = Heat induced decomposition by DSC and TGA; settings: 10° C. per minute, nitrogen purge
Procedure: (§1) The crystalline compounds were subjected to temperature scan using a TA Instruments Q100 differential scanning calorimeter equipped with a refrigerated cooling system. Samples were loaded into aluminum pans with crimped lids. In most cases, the samples were heated to 250° C. at a rate of 10° C. per minute under a purge of nitrogen gas. The data acquisition was controlled by Thermal Advantage software Release 5.1.2 and the data were analyzed with Universal Analysis 2000 software (version 4.7A).
as §1, with “Q500 thermal gravimetric analyzer.” for “Q100 differential scanning calorimeter equipped with a refrigerated cooling system.”, “platinum” for “aluminum”, “and” for “with crimped lids. In most cases, the samples were”

[5] = Retention of lattice water under ambient conditions and under high vacuum

| Compound | total quantity of water taken up in the DMS experiment ([1]; DMS, 25° C.) | solid form (PXRD) after moisture sorption-desorption [1] | hygroscopicity [1] | hysteresis between sorption and desorption [1] | solid form after exposure to high humidity [2] | solid form after slurrying in water [3] | heat induced decomposition temperature [4] | water taken up when exposed up to 90% RH ([1]; DMS, up to 90% RH) | total moisture uptake ([1]; isothermal moisture sorption at 25° C., at 90% RH) | loss of lattice water ([5]; exposed to ambient conditions for more than a month) | loss of lattice water ([5]; placed in high vacuum for more than 24 hours) | water taken up between 75% RH and 90% RH ([1]; DMS, between 75% RH and 90% RH) |
| --- | --- | --- | --- | --- | --- | --- | --- | --- | --- | --- | --- | --- |
| CC(C)OC(=O)[C@H](O)CN(Cc1ccc(-c2cccc(Cl)c2)cc1)NC(=O)c1cc(O)no1 [Form 2, (R)-3-[N-(3′-chlorobiphenyl-4-ylmethyl)-N′-(3-hydroxyisoxazole-5-carbonyl)hydrazino]-2-hydroxypropionic acid isopropyl ester] | 3.5-3.6% | showed a PXRD pattern that matched with the starting material | hygroscopic | showed distinct hysteresis | converts to Form 1 at high humidities | PXRD pattern consistent with Form 1 | > 175 °C | – | – | – | – | – |
| CC(C)OC(=O)[C@H](O)CN(Cc1ccc(-c2cccc(Cl)c2)cc1)NC(=O)c1cc(O)no1 [Form 4, (R)-3-[N-(3′-chlorobiphenyl-4-ylmethyl)-N′-(3-hydroxyisoxazole-5-carbonyl)hydrazino]-2-hydroxypropionic acid isopropyl ester] | – | retained its solid-state structure | non-hygroscopic | no hysteresis | – | – | – | less than 0.1 % by weight | – | – | – | – |
| CC(C)OC(=O)[C@H](O)CN(Cc1ccc(-c2cccc(Cl)c2)cc1)NC(=O)c1cc(O)no1 [Form 1, (R)-3-[N-(3′-chlorobiphenyl-4-ylmethyl)-N′-(3-hydroxyisoxazole-5-carbonyl)hydrazino]-2-hydroxypropionic acid isopropyl ester] | – | did not show any change in their PXRD pattern | slightly hygroscopic | did not show hysteresis | – | – | > 175 °C | – | ~0.5% | did not lose lattice water | did not lose lattice water | – |
| CC(C)OC(=O)[C@H](O)CN(Cc1ccc(-c2cccc(Cl)c2)cc1)NC(=O)c1cc(O)no1 [Form 3, (R)-3-[N-(3′-chlorobiphenyl-4-ylmethyl)-N′-(3-hydroxyisoxazole-5-carbonyl)hydrazino]-2-hydroxypropionic acid isopropyl ester] | – | returns to the same solid form after moisture sorption and desorption | hygroscopic | – | – | – | – | – | – | – | – | about 3.5% |
